Converted amounts (≈) assume the structure as drawn.
What was measured:
[1] = target: KRAS G12C (GMPPNP-loaded) and cRAF (Ras-binding domain) interaction (Homo sapiens (Human), UniProt P01116, C118S/C51S/C80L/G12C); assay: Inhibition of KRAS G12C and cRAF binding (AlphaScreen); settings: KRAS G12C loaded with GMPPNP, cRaf RBD, 2 hours preincubation; read-out: Raf-1 RBD K-Ras IC50
Procedure, shortened: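 AlphaScreen readout (680 nm excitation, 570 nm emission) of RBD binding after a 60-90 min bead step at room temperature. This step follows 2 h compound exposure of GMPPNP-preloaded KRAS G12C in Hepes pH 7.4 buffer with MgCl2 and 10 μM GMPPNP.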

[2] = Determination of logD (1-octanol / phosphate buffer pH 7.4); format: physicochemical; settings: 1-octanol/phosphate buffer, pH 7.4, pH 7.4, 1-octanol/phosphate buffer; read-out: Log D, pH 7.4
Procedure, shortened: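 Each phase analysed by LCMS after 1 h shaking at 800 rpm and centrifugation, room temperature. Phases were mutually saturated 1-octanol and 100 mM phosphate buffer at pH 7.4. LogD derived from the phase concentrations.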

[3] = Determination of kinetic solubility (pH 7.4); format: physicochemical; settings: phosphate buffer, pH 7.4, aqueous buffer, kinetic from dmso stock, 50 mM phosphate buffer pH 7.4, read-out: Ksol, pH 7.4
Procedure, shortened: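 Solubility taken from filtrate peak areas on a calibration curve (HPLC-UV, LC-MS/MS). Before filtration and centrifugation, compound was shaken for 2 h at room temperature in pH 7.4 50 mM phosphate buffer.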

[4] = target: KRAS G12C (GMPPNP-loaded) and PI3Ka (Ras-binding domain) interaction (Homo sapiens (Human), UniProt P01116, C118S/C51S/C80L/G12C); assay: Inhibition of KRAS G12C and PI3Ka binding (AlphaScreen); settings: KRAS G12C loaded with GMPPNP, PI3Ka RBD, 2 hours preincubation; read-out: PI3K RBD K-Ras IC50
Protocol: The AlphaScreen technology was used to determine IC50S for compound inhibition of KRAS G12C (present as the Cys-light (C51S, C80L and C118S), truncated version comprising amino acids 1-169) and PI3Ka interaction. Compounds were diluted in 100% DMSO and each compound concentration was spotted at 200 nl/well onto low volume, white 384 well plates. The KRAS G12C contained a biotin-AviTag and the PI3Ka, as Ras-binding domain (amino acids 157-300, RBD), was His-tagged. KRAS G12C was preloaded with the GTP analogue Guanosine 5′-[β,γ-imido]triphosphate (GMPPNP). The KRAS G12C was diluted in 25 mM Hepes, pH 7.4, 150 mM NaCl, 5 mM MgCl2, 0.01% TritonX-100 and 10 μM GMPPNP and added at 10 ul/well to compound-spotted plates resulting in a DMSO concentration of 2%. Plates were incubated for 2 hours. A mixture of RBD and the AlphaScreen streptavidin donor and nickel chelate acceptor beads diluted in 25 mM Hepes, pH 7.4, 150 mM NaCl, 5 mM MgCl2, 0.01% TritonX-100 and 2% DMSO was then added at 10 ul/well and incubated for 60-90 minutes before the samples were read for emission at 570 nm after excitation of the donor beads at 680 nm. All incubations were performed at room temperature. The final top compound concentration was 50 μM with 1:3 titrations for 10-point dose response curves. Final assay conditions were 1.5 nM KRAS G12C, 100 nM RBD, 1.25 ug/ml of AlphaScreen donor beads and 10 μg/ml AlphaLISA acceptor beads. IC50s were determined using nonlinear regression fit of [inhibitor] vs. response (4 parameters). […]

KRAS G12C (GMPPNP-loaded) and cRAF (Ras-binding domain) interaction, sequence (P01116 other isoform, or with tags, fused parts or gaps G12C/C51S/C80L/C118S): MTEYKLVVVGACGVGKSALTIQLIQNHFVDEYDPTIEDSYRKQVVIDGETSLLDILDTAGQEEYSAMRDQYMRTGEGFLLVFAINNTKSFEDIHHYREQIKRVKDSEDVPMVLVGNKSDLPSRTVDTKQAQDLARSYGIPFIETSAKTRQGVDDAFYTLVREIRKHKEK
KRAS G12C (GMPPNP-loaded) and PI3Ka (Ras-binding domain) interaction, sequence (P01116 other isoform, or with tags, fused parts or gaps G12C/C51S/C80L/C118S): as above

| Structure (SMILES) | IC50 [1] [nM] | logD [2] | solubility kinetic at 2 h [3] [µg/mL] | IC50 [4] [nM] |
| --- | --- | --- | --- | --- |
| N#CC[C@H]1CN(c2nc(OCC34CCCN3CCC4)nc3c2CCN(c2cccc4cccc(Cl)c24)C3)CCN1C(=O)/C=C/c1nc(C(F)(F)F)no1 [Example 17, (S,E)-2-(4-(7-(8-chloronaphthalen-1-yl)-2-((hexahydro-1H-pyrrolizin-7a-yl)methoxy)-5,6,7,8-tetrahydropyrido[3,4-d]pyrimidin-4-yl)-1-(3-(3-(trifluoromethyl)-1,2,4-oxadiazol-5-yl)acryloyl)piperazin-2-yl)acetonitrile] | < 10 | 4.32 | 0.01 (≈ 0.0134 µM) | < 10 |
| N#CC[C@H]1CN(c2nc(OC[C@@]34CCCN3C[C@H](F)C4)nc3c(F)c(-c4cccc(Cl)c4C4CC4)ncc23)CCN1C(=O)/C=C/CN1C[C@@H]2C[C@H]1CO2 [Compound 277] | < 10 | 2.85 | 91 (≈ 122 µM) | < 10 |
| Cc1cc(N)nc([C@@H]2Cc3nc(OC[C@@]45CCCN4C[C@H](F)C5)nc(N4CCN(C(=O)/C=C/c5nc([C@H]6C[C@@H]6F)no5)[C@@H](CC#N)C4)c3C[C@H]2C)c1C(F)(F)F [Compound 136] | < 10 | 4.37 | 0.02 (≈ 0.0255 µM) | < 10 |
| CC(C)c1noc(/C=C/C(=O)N2CCN(c3nc(OC[C@@]45CCCN4C[C@H](F)C5)nc4c3CCN(c3cccc5ccc(F)c(Cl)c35)C4)C[C@@H]2CC#N)n1 [Compound 128] | 10 to 100 | 4.56 | 0.01 (≈ 0.0132 µM) | 10 to 100 |
| Cc1nccc(/C=C/C(=O)N2CCN(c3nc(OC[C@@]45CCCN4C[C@H](F)C5)nc4c(F)c(-c5nc(N)cc6cccc(Cl)c56)ncc34)C[C@@H]2CC#N)n1 [Compound 148] | < 10 | 2.25 | 83.8 (≈ 111 µM) | < 10 |
| N#CC[C@H]1CN(c2nc(OC[C@@]34CCCN3C[C@H](F)C4)nc3c(F)c(-c4cccc5cccc(Cl)c45)ncc23)CCN1C(=O)/C=C/CN1CC[C@@H](F)C1 [Compound 96, 2-((S)-4-(7-(8-chloronaphthalen-1-yl)-8-fluoro-2-(((2R,7aS)-2-fluorohexahydro-1H-pyrrolizin-7a-yl)methoxy)pyrido[4,3-d]pyrimidin-4-yl)-1-((E)-4-((R)-3-fluoropyrrolidin-1-yl)but-2-enoyl)piperazin-2-yl)acetonitrile] | < 10 | 2.82 | 64.4 (≈ 86.5 µM) | < 10 |
| C#Cc1c(F)ccc2cccc(-c3ncc4c(N5CCN(C(=O)/C=C/c6cc(C)nc(C)n6)[C@@H](CC#N)C5)nc(OC[C@@]56CCCN5C[C@H](F)C6)nc4c3F)c12 [Compound 101, 2-((S)-1-((E)-3-(2,6-dimethylpyrimidin-4-yl)acryloyl)-4-(7-(8-ethynyl-7-fluoronaphthalen-1-yl)-8-fluoro-2-(((2R,7aS)-2-fluorotetrahydro-1H-pyrrolizin-7a(5H)-yl)methoxy)pyrido[4,3-d]pyrimidin-4-yl)piperazin-2-yl)acetonitrile] | < 10 | 3.32 | 1.49 (≈ 1.97 µM) | < 10 |
| N#CC[C@H]1CN(c2nc(OC[C@@]34CCCN3C[C@H](F)C4)nc3c(F)c(-c4cccc5ccc(F)c(F)c45)ncc23)CCN1C(=O)/C=C/CN1CC2CC(C1)O2 [Compound 229] | < 10 | 1.63 | 69.9 (≈ 92.3 µM) | < 10 |
| CC(C)(C)c1noc(/C=C/C(=O)N2CCN(c3nc(OC[C@@]45CCCN4C[C@H](F)C5)nc4c3CCN(c3cccc5cccc(Cl)c35)C4)C[C@@H]2CC#N)n1 [Compound 31] | 10 to 100 | 4.35 | 0.01 (≈ 0.0133 µM) | 10 to 100 |
| CC(C)c1noc(/C=C/C(=O)N2CCN(c3nc(OCC45CCCN4CCC5)nc4c3CCN(c3cccc5ccc(F)c(Cl)c35)C4)C[C@@H]2CC#N)n1 [Compound 126] | 10 to 100 | 4.24 | 0.01 (≈ 0.0135 µM) | 10 to 100 |
| CN1CCC1/C=C/C(=O)N1CCN(c2nc(OC[C@@]34CCCN3C[C@H](F)C4)nc3c(F)c(-c4cccc5ccc(F)c(Cl)c45)ncc23)C[C@@H]1CC#N (stereo partly shown) [Compound 54] | < 10 | 2.59 | 135 (≈ 185 µM) | < 10 |
| CCc1nccc(/C=C/C(=O)N2CCN(c3nc(OC[C@@]45CCCN4C[C@H](F)C5)nc4c(F)c(-c5cccc6ccc(F)c(Cl)c56)ncc34)C[C@@H]2CC#N)n1 [Example 88, 2-((S)-4-(7-(8-chloro-7-fluoronaphthalen-1-yl)-8-fluoro-2-(((2R,7aS)-2-fluorotetrahydro-1H-pyrrolizin-7a(5H)-yl)methoxy)pyrido[4,3-d]pyrimidin-4-yl)-1-((E)-3-(2-ethylpyrimidin-4-yl)acryloyl)piperazin-2-yl)acetonitrile] | < 10 | 4.55 | 45.9 (≈ 59.7 µM) | < 10 |
| Cc1nsc(/C=C/C(=O)N2CCN(c3nc(OC[C@@]45CCCN4C[C@H](F)C5)nc4c3C[C@@H](C)[C@H](c3nc(N)cc(C)c3C(F)(F)F)C4)C[C@@H]2CC#N)n1 [Compound 192] | < 10 | 4.69 | 2.01 (≈ 2.66 µM) | < 10 |
| CO[C@@H]1CCN(C/C=C/C(=O)N2CCN(c3nc(OC[C@@]45CCCN4C[C@H](F)C5)nc4c(F)c(-c5cccc6ccc(F)c(Cl)c56)ncc34)C[C@@H]2CC#N)C1 [Example 85, 2-((S)-4-(7-(8-chloro-7-fluoronaphthalen-1-yl)-8-fluoro-2-(((2R,7aS)-2-fluorotetrahydro-1H-pyrrolizin-7a(5H)-yl)methoxy)pyrido[4,3-d]pyrimidin-4-yl)-1-((E)-4-((R)-3-methoxypyrrolidin-1-yl)but-2-enoyl)piperazin-2-yl)acetonitrile] | < 10 | 2.97 | 85.5 (≈ 110 µM) | < 10 |
| Cc1cc(N)nc(C2Cc3nc(OC[C@@]45CCCN4C[C@H](F)C5)nc(N4CCN(C(=O)/C=C/CN(C)C)[C@@H](CC#N)C4)c3CC2C)c1C(F)(F)F (stereo partly shown) [Compound 315] | < 10 | 2.47 | 139 (≈ 195 µM) | < 10 |
| Cc1nccc(/C=C/C(=O)N2CCN(c3nc(OCC45CCCN4CCC5)nc4c3CCN(c3cccc5cccc(Cl)c35)C4)C[C@@H]2CC#N)n1 [Compound 202] | < 10 | 3.38 | 90.2 (≈ 128 µM) | < 10 |
| Cc1noc(/C=C/C(=O)N2CCN(c3nc(OC[C@@]45CCCN4C[C@H](F)C5)nc4c3CCN(c3cccc5cccc(Cl)c35)C4)C[C@@H]2CC#N)n1 [Compound 2, 2-((S)-4-(7-(8-chloronaphthalen-1-yl)-2-(((2R,7aS)-2-fluorohexahydro-1H-pyrrolizin-7a-yl)methoxy)-5,6,7,8-tetrahydropyrido[3,4-d]pyrimidin-4-yl)-1-((E)-3-(3-methyl-1,2,4-oxadiazol-5-yl)acryloyl)piperazin-2-yl)acetonitrile] | 10 to 100 | 4.42 | – | < 10 |
| Cc1cc(N)nc(C2Cc3nc(OC[C@@]45CCCN4C[C@H](F)C5)nc(N4CCN(C(=O)/C=C/C5CCN5C)[C@@H](CC#N)C4)c3CC2C)c1C(F)(F)F (mixture of isomers) [Example 68, 2-((2S)-4-(7-(6-amino-4-methyl-3-(trifluoromethyl)pyridin-2-yl)-2-(((2R,7aS)-2-fluorohexahydro-1H-pyrrolizin-7a-yl)methoxy)-6-methyl-5,6,7,8-tetrahydroquinazolin-4-yl)-1-((E)-3-(1-methylazetidin-2-yl)acryloyl)piperazin-2-yl)acetonitrile] | < 10 | 3.09 | – | < 10 |
